Test results reported in PMC7946963, “Phosphorylation regulates the binding of autophagy receptors to FIP200 Claw domain for selective autophagy initiation” (Nature Communications, 2021).
Peptide text beside a SMILES is read from it.

Tests used:
[1] = target: T1, FIP200 Claw domain (residues 1490–1594) (Homo sapiens, UniProt Q8TDY2); assay: Fluorescence polarization (FP) binding assay, FITC-peptide titrated with FIP200 Claw; conditions: N-terminally FITC-labeled peptide (~0.25 μM) titrated with FIP200 Claw (residues 1490–1594), 20 mM Tris pH 7.9, 100 mM NaCl, 1 mM DTT, 25 °C, one-site binding model, performed in triplicate, read-out: Kd (fitted dissociation constant with standard error)
T1 construct: N-terminal Trx-tag/His6-tag or His6-tag/SUMO-tag (vector for this fragment not specified) (N, cleaved yes); made in house; host or cells: E. coli BL21 (DE3)
T1 sequence (Q8TDY2 1490-1594): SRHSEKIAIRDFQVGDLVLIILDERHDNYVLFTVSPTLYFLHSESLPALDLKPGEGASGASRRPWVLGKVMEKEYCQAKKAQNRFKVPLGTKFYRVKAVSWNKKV
Description: Fluorescence anisotropy binding assays were performed on the SpectraMax i3x Multi-Mode Detection Platform from Molecular Devices, using a 485 nm excitation filter and a 535 nm emission filter. Peptides were labeled with fluorescein isothiocyanate isomer I (Sigma-Aldrich) at their N-terminals. […] The Kd values were obtained by fitting the titration curves with the classical one-site binding model using GraphPad Prism 6 software.

[2] = tested on: different ATG8 proteins (LC3A, LC3B, LC3C, GABARAP, GABARAPL1, GABARAPL2); assay: ITC-based measurements of ATG16L1 FIR with ATG8 proteins; conditions: one-site binding model, peer review file figure
[3] = tested on: FIP200 Claw (FIP200(1450–1594)); assay: Analytical gel filtration chromatography with FIP200 Claw; format: binding, human; conditions: for interaction of CCPG1 FIR2 variant with FIP200 Claw (in words): analytical gel filtration chromatography and fluorescence spectroscopy-based analyses, Supplementary Fig. 10; for effect of point mutation in Optineurin(169–185) S177E on the interaction with FIP200 (in words): analytical gel filtration chromatography, Supplementary Fig. 16; for interaction of Optineurin fragment with FIP200 (in words): analytical gel filtration chromatography with FIP200(1450–1594), Fig. 3b, c, Supplementary Fig. 15
Description: (§1) Purified proteins were loaded on to a […] 10/300 GL column (GE Healthcare) equilibrated with a buffer containing 20 mM Tris-HCl (pH 7.9), 100 mM NaCl and 1 mM DTT. Analytical gel filtration chromatography was carried out on an AKTA FPLC system (GE Healthcare). The fitting results were further output to the Origin 8.5 software and aligned with each other.

[4] = tested on: all six mammalian ATG8 orthologues; assay: Analytical gel filtration chromatography, statement over all ATG8 orthologues; format: binding; conditions: qualitative analytical gel filtration chromatography; Supplementary Figs. 20 and 21
Description: as §1

[5] = tested on: FIP200 Claw K1569A mutant; assay: Analytical gel filtration chromatography with FIP200 K1569A mutant; format: binding, human; conditions: Supplementary Fig. 16
Description: as §1

[6] = tested on: FIP200 Claw Y1564S mutant; assay: Analytical gel filtration chromatography with FIP200 Y1564S mutant; format: binding, human; conditions: Supplementary Fig. 16
Description: as §1

[7] = tested on: FIP200 Claw R1573E mutant; assay: Analytical gel filtration chromatography with FIP200 R1573E mutant; format: binding, human; conditions: Supplementary Fig. 16
Description: as §1

[8] = tested on: FIP200 Claw F1574Q mutant; assay: Analytical gel filtration chromatography with FIP200 F1574Q mutant; format: binding, human; conditions: Supplementary Fig. 16
Description: as §1

[9] = tested on: FIP200 Claw; conditions: cited from earlier work
From the text: Previous studies have well established a critical role of the FIP200 subunit in the ULK complex for associating with other autophagic factors, especially some autophagy receptors such as CCPG1, NDP52, and P62[30],[49]–[51].

CC[C@H](C)[C@H](NC(=O)[C@H](CCC(=O)O)NC(=O)[C@@H](NC(=O)[C@H](Cc1ccccc1)NC(=O)[C@H](COP(=O)(O)O)NC(=O)[C@H](CC(=O)O)NC(=O)[C@H](CCC(=O)O)NC(=O)[C@H](CO)NC(=O)[C@@H](N)CO)C(C)C)C(=O)N[C@@H](CCCNC(=N)N)C(=O)N[C@@H](CCSC)C(=O)N[C@@H](C)C(=O)N[C@@H](CCC(=O)O)C(=O)O [p-Optineurin LIR] (HELM PEPTIDE1{S.S.E.D.[O=C([C@H](COP(=O)(O)O)N[*:1])[*:2]].F.V.E.I.R.M.A.E}$$$$V2.0)
Kd [1]: 11.5 ± 1.74 µM

ATG16L1 FIR: ATG16L1 FIR (residues 235-247), FIP200-interacting region of ATG16L1 (EQDDDIEVIVDET; UniProt Q676U5 235-247, looked up, fragment)
binding to different ATG8 proteins (in words) [2]: can directly bind

CCPG1 FIR2 S104E: recombinant phosphomimetic S104E mutant of CCPG1 FIR2 (residues 99–113) (TASDDEDIVTLEPPK)
interaction of CCPG1 FIR2 variant with FIP200 Claw (in words) [3]: good abilities to interact
interaction with all six mammalian ATG8 orthologues (in words) [4]: can directly interact

D105A: D105A point mutant of CCPG1 FIR2 (TASDDSAIVTLEPPK)
interaction of CCPG1 FIR2 variant with FIP200 Claw (in words) [3]: significantly decrease or essentially disrupt

D176R: D176R mutation of the phosphomimetic Optineurin(169–185) S177E mutant (NSSGSSEREFVEIRMAE)
effect of point mutation in Optineurin(169–185) S177E on the interaction with FIP200 (in words) [3]: significantly attenuate or completely abolish

F178Q: F178Q mutation of the phosphomimetic Optineurin(169–185) S177E mutant (NSSGSSEDEQVEIRMAE)
effect of point mutation in Optineurin(169–185) S177E on the interaction with FIP200 (in words) [3]: significantly attenuate or completely abolish

I106S: I106S point mutant of CCPG1 FIR2 (TASDDSDSVTLEPPK)
interaction of CCPG1 FIR2 variant with FIP200 Claw (in words) [3]: significantly decrease or essentially disrupt

L109A: L109A point mutant of CCPG1 FIR2 (TASDDSDIVTAEPPK)
interaction of CCPG1 FIR2 variant with FIP200 Claw (in words) [3]: significantly decrease or essentially disrupt

Optineurin(33–168): recombinant human Optineurin fragment, residues 33–168
interaction of Optineurin fragment with FIP200 (in words) [3]: no obvious interactions

Optineurin(169–185) S177E: recombinant phosphomimetic S177E mutant of Optineurin(169–185) that solely includes the LIR motif (NSSGSSEDEFVEIRMAE; UniProt Q96CV9 169-185, looked up, variant S177E)
interaction with FIP200 K1569A mutant compared with wild type (in words) [5]: significantly attenuate or completely abolish
interaction with FIP200 Y1564S mutant compared with wild type (in words) [6]: significantly attenuate or completely abolish
interaction with FIP200 R1573E mutant compared with wild type (in words) [7]: significantly attenuate or completely abolish
interaction of Optineurin fragment with FIP200 (in words) [3]: can specifically interact
interaction with FIP200 F1574Q mutant compared with wild type (in words) [8]: significantly attenuate or completely abolish

Optineurin(186–209): recombinant human Optineurin fragment, residues 186–209
interaction of Optineurin fragment with FIP200 (in words) [3]: no obvious interactions

T108A: T108A point mutant of CCPG1 FIR2 (TASDDSDIVALEPPK)
interaction of CCPG1 FIR2 variant with FIP200 Claw (in words) [3]: significantly decrease or essentially disrupt

p-Optineurin(33–209): Optineurin(33–209) fragment phosphorylated in vitro by TBK1
interaction of Optineurin fragment with FIP200 (in words) [3]: much stronger binding ability

phosphomimetic quadruple mutations (S349D, S365D, S366D, and S370D) of P62: P62 with phosphomimetic S349D, S365D, S366D, S370D mutations, from ref 49
enhancement of the binding affinity of P62 for FIP200 Claw by phosphomimetic mutations [9]: roughly by twofold
